# Columns and labels:
# Test in all cases: relative viability (nuclei count vs DMSO), 5 days (fraction); higher = more cells survive
# [1] = compound: CS(=O)(=O)N1CCN(Cc2cc3nc(-c4cccc5[nH]ncc45)nc(N4CCOCC4)c3s2)CC1 [Pictilisib] + CC(=O)Nc1cccc(-n2c(=O)n(C3CC3)c(=O)c3c(Nc4ccc(I)cc4F)n(C)c(=O)c(C)c32)c1 [Trametinib] (partner 0.02 µM)
# Outline: (§1)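 Lung cancer cell lines were seeded in 1536-well plates and dosed by pin tool the next day, with either a single drug or a fixed anchor-drug dose combined with five library-drug doses (not always all listed) spaced in √10 steps. Five days later, one step fixed the cells and stained their nuclei (final 0.05% Triton X-100, 1% formaldehyde, 1 ug/ml Hoechst), and nuclei were counted on 4× images. Relative viability is the nuclei count in treated wells divided by the count in vehicle wells, and each value is the median of duplicate plates.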
# [2] = compound: CS(=O)(=O)N1CCN(Cc2cc3nc(-c4cccc5[nH]ncc45)nc(N4CCOCC4)c3s2)CC1 [Pictilisib] + O=C(c1cc(Cc2n[nH]c(=O)c3ccccc23)ccc1F)N1CCN(C(=O)C2CC2)CC1 [Olaparib] (partner 8 µM)
# Outline: as §1
# [3] = compound: NC1(c2ccc(-c3nc4ccn5c(=O)[nH]nc5c4cc3-c3ccccc3)cc2)CCC1 [MK-2206] + CC(C)C[C@H](NC(=O)[C@H](Cc1ccccc1)NC(=O)c1cnccn1)B(O)O [Bortezomib] (partner 0.002 µM)
# Outline: as §1
# [4] = compound: CS(=O)(=O)N1CCN(Cc2cc3nc(-c4cccc5[nH]ncc45)nc(N4CCOCC4)c3s2)CC1 [Pictilisib] + O=C(CCCCCCC(=O)Nc1ccccc1)NO [Vorinostat] (partner 1 µM)
# Outline: as §1
# [5] = compound: NC1(c2ccc(-c3nc4ccn5c(=O)[nH]nc5c4cc3-c3ccccc3)cc2)CCC1 [MK-2206] + Nc1ncn([C@H]2C[C@H](O)[C@@H](CO)O2)c(=O)n1 [Decitabine] (partner 2 µM)
# Outline: as §1
Cell Line,relative viability ([1]; first compound 0.02 µM),relative viability ([1]; first compound 0.06325 µM),relative viability ([1]; first compound 0.6325 µM),relative viability ([1]; first compound 2 µM),relative viability ([2]; first compound 0.02 µM),relative viability ([2]; first compound 0.06325 µM),relative viability ([2]; first compound 0.6325 µM),relative viability ([2]; first compound 2 µM),relative viability ([3]; first compound 0.01 µM),relative viability ([3]; first compound 0.03162 µM),relative viability ([3]; first compound 0.3162 µM),relative viability ([3]; first compound 1 µM),relative viability ([4]; first compound 0.02 µM),relative viability ([4]; first compound 0.06325 µM),relative viability ([4]; first compound 0.6325 µM),relative viability ([4]; first compound 2 µM),relative viability ([5]; first compound 0.01 µM),relative viability ([5]; first compound 0.03162 µM),relative viability ([5]; first compound 0.3162 µM),relative viability ([5]; first compound 1 µM)
201T,0.737,0.686,0.659,0.585,0.844,0.815,0.811,0.604,1.06,1.13,1.17,1.16,0.859,0.966,0.869,0.622,0.817,0.892,0.882,0.842
A549,–,–,–,–,0.441,0.355,0.283,0.211,–,–,–,–,–,–,–,–,0.304,0.26,0.24,0.294
A-427,0.733,0.716,0.505,0.287,0.721,0.712,0.71,0.552,0.912,1,1.02,0.931,0.84,0.874,0.95,0.853,0.6,0.603,0.562,0.567
ABC-1,–,–,–,–,0.781,0.721,0.79,0.721,0.302,0.219,0.43,0.352,0.83,1.07,0.859,0.691,1.19,1.25,1.06,1.02
BEN,1.02,0.953,0.962,0.636,1.03,1.11,1.02,0.978,0.775,0.821,1,0.528,0.583,0.615,0.609,0.441,0.909,0.673,0.679,0.643
CAL-12T,0.332,0.331,0.221,0.178,0.761,0.785,0.754,0.523,0.971,0.928,0.947,0.963,0.755,0.664,0.629,0.283,–,–,–,–
COR-L23,0.596,0.582,0.384,0.285,0.316,0.319,0.337,0.327,0.913,1,1.18,0.989,0.491,0.407,0.386,0.286,0.411,0.417,0.421,0.388
COR-L 105,0.382,0.4,0.432,0.38,0.667,0.697,0.734,0.549,0.766,0.725,0.997,0.843,0.91,0.874,0.594,0.606,0.656,0.568,0.624,0.779
Calu-6,–,–,–,–,0.656,0.554,0.589,0.519,0.991,1.08,1.01,1.15,–,–,–,–,–,–,–,–
ChaGo-K-1,0.813,0.873,0.79,0.631,0.44,0.381,0.5,0.332,1.09,0.993,0.924,0.763,0.797,0.773,0.64,0.609,0.533,0.511,0.514,0.526
EBC-1,–,–,–,–,0.681,0.741,0.564,0.243,0.603,0.47,0.345,0.197,–,–,–,–,–,–,–,–
EKVX,0.424,0.287,0.268,0.193,0.962,0.828,0.777,0.406,0.996,1.21,0.705,0.649,0.734,0.538,0.56,0.254,0.359,0.339,0.324,0.322
EMC-BAC-2,0.863,0.869,0.685,0.513,0.513,0.52,0.407,0.334,1.08,1.04,1.06,0.865,0.88,0.615,0.337,0.286,0.98,0.956,0.939,0.829
EPLC-272H,0.275,0.278,0.212,0.126,0.773,0.731,0.36,0.241,1.05,1.06,–,1.01,0.477,0.403,0.449,0.23,0.392,0.345,0.364,0.392
H3255,0.611,0.556,0.394,0.243,0.585,0.599,0.472,0.412,0.718,0.977,0.718,0.564,0.813,0.779,0.788,0.414,0.611,0.628,0.51,0.502
HARA,0.626,0.715,0.479,0.129,0.837,0.97,0.92,0.358,1.16,1.31,1.08,0.916,0.712,0.35,0.299,0.239,0.435,0.481,0.551,0.587
HCC-15,0.359,0.334,0.237,0.178,0.758,0.772,0.638,0.504,0.98,1.07,1,0.811,0.841,0.818,0.707,0.535,0.63,0.774,0.549,0.353

Cell Line,relative viability ([1]; first compound 0.02 µM),relative viability ([1]; first compound 0.06325 µM),relative viability ([1]; first compound 0.6325 µM),relative viability ([1]; first compound 2 µM),relative viability ([2]; first compound 0.02 µM),relative viability ([2]; first compound 0.06325 µM),relative viability ([2]; first compound 0.6325 µM),relative viability ([2]; first compound 2 µM),relative viability ([3]; first compound 0.01 µM),relative viability ([3]; first compound 0.03162 µM),relative viability ([3]; first compound 0.3162 µM),relative viability ([3]; first compound 1 µM),relative viability ([4]; first compound 0.02 µM),relative viability ([4]; first compound 0.06325 µM),relative viability ([4]; first compound 0.6325 µM),relative viability ([4]; first compound 2 µM),relative viability ([5]; first compound 0.01 µM),relative viability ([5]; first compound 0.03162 µM),relative viability ([5]; first compound 0.3162 µM),relative viability ([5]; first compound 1 µM)
IA-LM,–,–,–,–,0.952,0.987,0.792,0.516,0.868,0.928,0.887,0.699,0.917,0.97,0.881,0.373,–,–,–,–
LK-2,0.738,0.654,0.558,0.257,0.523,0.588,0.485,0.304,–,–,–,–,0.292,0.291,0.214,0.139,0.36,0.355,0.286,0.12
NCI-H358,0.132,0.141,0.122,0.104,0.627,0.729,0.479,0.271,–,–,–,–,0.816,0.693,0.603,0.264,0.216,0.208,0.201,0.217
NCI-H522,0.884,0.721,0.572,0.43,0.619,0.663,0.561,0.493,–,–,–,–,0.857,0.866,0.757,0.608,0.701,0.677,0.612,0.654
NCI-H1299,–,–,–,–,0.996,1.01,1.03,0.858,1.04,1.02,1.09,1,–,–,–,–,–,–,–,–
NCI-H1395,1.03,1.03,0.866,0.477,0.514,0.439,0.367,0.367,–,–,–,–,1.08,0.727,0.498,0.369,0.703,0.853,0.705,0.657
NCI-H1563,–,–,–,–,–,–,–,–,0.869,0.947,0.636,0.768,–,–,–,–,–,–,–,–
NCI-H1648,0.363,0.401,0.236,0.222,0.701,0.561,0.355,0.264,–,–,–,–,0.393,0.378,0.239,0.19,0.405,0.574,0.483,0.575
NCI-H1703,–,–,–,–,0.471,0.378,0.214,0.122,0.338,0.28,0.316,0.223,–,–,–,–,–,–,–,–
NCI-H1792,0.505,0.346,0.305,0.102,0.386,0.294,0.261,0.0715,0.985,1,0.979,0.923,–,–,–,–,0.6,0.577,0.581,0.458
NCI-H1793,0.397,0.448,0.332,0.211,0.812,0.613,0.331,0.167,–,–,–,–,0.712,0.724,0.379,0.243,0.477,0.552,0.439,0.435
NCI-H1944,0.451,0.349,0.337,0.183,0.395,0.381,0.368,0.232,–,–,–,–,0.61,0.494,0.375,0.201,0.414,0.449,0.508,0.446
NCI-H2170,0.864,0.916,0.784,0.587,0.608,0.508,0.562,0.33,–,–,–,–,0.856,0.822,0.611,0.304,0.482,0.462,0.462,0.443
NCI-H2228,0.391,0.519,0.199,0.148,0.715,0.734,0.45,0.209,0.973,1.04,0.643,0.413,0.524,0.72,0.434,0.253,–,–,–,–
NCI-H2342,0.77,0.747,0.724,0.476,0.446,0.379,0.406,0.242,–,–,–,–,0.672,0.814,0.695,0.529,0.687,0.792,0.787,0.629
SK-MES-1,0.537,0.434,0.331,0.226,0.881,0.654,0.474,0.296,–,–,–,–,1.11,1.12,0.856,0.511,0.383,0.4,0.371,0.321
SW 900,0.899,0.753,0.683,0.364,0.793,0.818,0.713,0.471,–,–,–,–,0.695,0.579,0.382,0.231,0.449,–,0.399,0.391
